Results as given in article PMC5502072 (Investigational New Drugs, 2017).
Entries after “also recorded” stand apart in the source; their conditions may differ. Read-outs that look alike come from different tables or passages of the source.

Assays:
[1] = test system: lung squamous cell carcinoma; urothelial carcinoma with FGFR3 alterations; details: cited from earlier work
advanced solid tumors = details: all responders had FGFR2 or FGFR3 translocations; cited from earlier work
advanced solid tumours = assay: Preliminary antitumour efficacy (RECIST v1.1); assay type: in vivo, human
Protocol: Tumour assessments were performed according to Response Evaluation Criteria in Solid Tumors version 1.1 (RECIST v1.1) at baseline, on day 21 of the first treatment cycle, then every 6 weeks after the start of treatment for 12 weeks, and thereafter every 12 weeks (±1 week) until discontinuation of study treatment or withdrawal of consent.

several tumour types = details: cited from earlier work
[2] = previously treated advanced/metastatic UC with FGFR3 alterations
[3] = one patient with FGFR1-amplified squamous NSCLC, 80 mg bid

For CCN1CCN(c2ccc(Nc3cc(N(C)C(=O)Nc4c(Cl)c(OC)cc(OC)c4Cl)ncn3)cc2)CC1 [BGJ398], the “Patients with PR” value ([1]; lung squamous cell carcinoma, selected by FGFR amplification status) is given as 2/17, the Complete response [1, 2] is given as “one unconfirmed complete response” and the “Patients with PR” value [1, 2] is given as 8/25.

For COc1cc(OC)cc(N(CCNC(C)C)c2ccc3ncc(-c4cnn(C)c4)nc3c2)c1 [JNJ-42756493], the “Patients with PR” value (advanced solid tumors) is given as 4/23.

With AZD4547 the “Patients with stable disease (≥4 weeks' duration)” value (“Patients … (≥4 weeks' duration)” for short) (advanced solid tumours; Part A) was 70%, the “Patients with stable disease ≥4 weeks” value (advanced solid tumours; Part A) was 21/30 and the “Range of percentage change in the sum of the diameters of target lesions” value (advanced solid tumours; Part A) was “–6.8% to 48.9”. The “Median percentage change in the sum of the diameters of target lesions” value (advanced solid tumours; Part A (25/30 patients)) was 5.9%, the “Patients … (≥4 weeks' duration)” value (advanced solid tumours; Part A, 40 mg bid) was 3 n and the “Patients … (≥4 weeks' duration)” value (advanced solid tumours; Part A, 80 mg bid) was 3 n. The “Patients … (≥4 weeks' duration)” value (advanced solid tumours; Part A, 120 mg bid) was 5 n, the “Patients … (≥4 weeks' duration)” value (advanced solid tumours; Part A, 160 mg qd) was 10 n and the “Range of percentage change in the sum of the diameters of target lesions” value (advanced solid tumours; Part B) was “–16.3% to 23.4”. The “Median percentage change in the sum of the diameters of target lesions” value (advanced solid tumours; Part B (all patients)) was 3.0%, the “Patients continuing to experience stable disease at 10 weeks” value (advanced solid tumours; Part B, 80 mg bid) was 25.0% and the “Patients with stable disease ≥10 weeks” value (advanced solid tumours; Part B, 80 mg bid) was 1/4. The “Complete responses and partial responses (RECIST v1.1)” value (advanced solid tumours; Parts A and B) was “No complete or partial responses were observed; also recorded: not observed”, the “Patients with stable disease” value (several tumour types; 4/21 additional patients) was 19% and the Best response (several tumour types; [3]) was “partial response”. For the same compound, the “Duration of PR” value (several tumour types; [3]) was no less than 12 weeks.
